For six molecules, Activity and MIC results are on record in ChEMBL document CHEMBL1649211, “Diversity of beta-lactamases produced by ceftazidime-resistant Pseudomonas aeruginosa isolates causing bloodstream infections in Brazil” (2009).

Format in all cases: functional
Test [1] has as its system Pseudomonas aeruginosa. As to the kind of experiment: Antimicrobial activity against beta-lactamase-producing Pseudomonas aeruginosa clinical isolate assessed as susceptible isolates by agar dilution method. Background: Agar dilution tests growth on a series of plates holding different concentrations.
Test [2] concerns Pseudomonas aeruginosa. Nature of the test: Antimicrobial activity against Pseudomonas aeruginosa clinical isolate overexpressing AmpC gene assessed as resistant isolates by agar dilution method.
In test [3] the test system is Pseudomonas aeruginosa. As to the kind of experiment: Antimicrobial activity against ESBL- and MBL-producing Pseudomonas aeruginosa isolated from patients with bloodstream infection assessed as resistant isolates by agar dilution method.
The subject of test [4] is Pseudomonas aeruginosa. Nature of the test: Antimicrobial activity against ESBL- and MBL-producing and ceftazidime-resistant Pseudomonas aeruginosa isolated from patients with bloodstream infection assessed as resistant isolates by agar dilution method.
In test [5] the test system is Pseudomonas aeruginosa. As to the kind of experiment: Antimicrobial activity against beta-lactamase-producing Pseudomonas aeruginosa clinical isolate assessed as susceptible isolate by agar dilution method in presence of beta-lactamase inhibitor Tazobactam.
Test [6] concerns Pseudomonas aeruginosa. Nature of the test: Antimicrobial activity against beta-lactamase-producing Pseudomonas aeruginosa clinical isolate by agar dilution method.

Turning to `NCC[C@H](O)C(=O)N[C@@H]1C[C@H](N)[C@@H](O[C@H]2O[C@H](CN)[C@@H](O)[C@H](O)[C@H]2O)[C@H](O)[C@H]1O[C@H]1O[C@H](CO)[C@@H](O)[C@H](N)[C@H]1O` [AMIKACIN], the Activity with Pseudomonas aeruginosa [1] stood at 18.6%. Take `CC(C)(O/N=C(\C(=O)N[C@@H]1C(=O)N2C(C(=O)[O-])=C(C[n+]3ccccc3)CS[C@H]12)c1csc(N)n1)C(=O)O` [CEFTAZIDIME]: the Activity in the test with Pseudomonas aeruginosa [2] was determined as 9.3%; with Pseudomonas aeruginosa [3], 28%. As to `C[C@@H](O)[C@H]1C(=O)N2C(C(=O)O)=C(SCCNC=N)C[C@H]12` [IMIPENEM ANHYDROUS], the Activity with Pseudomonas aeruginosa [1] came out at 18.6%; in the test on Pseudomonas aeruginosa [4], 82%. For `C[C@@H](O)[C@H]1C(=O)N2C(C(=O)O)=C(S[C@@H]3CN[C@H](C(=O)N(C)C)C3)[C@H](C)[C@H]12` [MEROPENEM], in the test with Pseudomonas aeruginosa [4], the Activity amounted to 95%. `CCN1CCN(C(=O)N[C@@H](C(=O)N[C@@H]2C(=O)N3[C@@H]2SC(C)(C)[C@@H]3C(=O)O)c2ccccc2)C(=O)C1=O` [PIPERACILLIN]: the Activity is 34.8% in the test on Pseudomonas aeruginosa [1] and 39.5% in the test with Pseudomonas aeruginosa [5]. In the test on Pseudomonas aeruginosa [6], this molecule returned an MIC not above 16 µg/mL. Turning to COLISTIN, in the test on Pseudomonas aeruginosa [1], the Activity worked out at 100%.

One may read the MIC as the smallest concentration in the dilution series that meets the test's criterion for growth inhibition. Lower therefore signals a more susceptible organism.
